The values that follow come from patent US12059425B2, “Heterocyclic compounds and uses thereof” (Kumquat Biosciences Inc., priority 2022, dated 2024).

The target of one test is T1, K-Ras G12D (Homo sapiens, UniProt P01116, G12D).
T1 construct: made in house; host or cells: E. coli, e.g. BL21 (DE3)
The test is described as follows: PPI-HTRF assay, K-Ras G12D / SOS1 interaction. Type of test: biochemical. An outline of the steps: (§1)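 HTRF readout: 665/620 nm ratio (ex 337 nm) after ≥10 min incubation. Donor anti-GST-Eu(K) sits on GST-K-Ras (WT, G12D, G12V or G12S) and acceptor anti-6His-XL665 on His-hSOS1. Buffer ~5 mM HEPES pH 7.4, ~150 mM NaCl, ~1 mM DTT, 0.05% BSA, 0.0025% Igepal. Duplicate 6-point dilution, 10–0.01 μM, fitted to IC50.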

The target of the next test is T2, K-Ras G12V (Homo sapiens, UniProt P01116, G12V).
T2 construct: made in house; host or cells: E. coli, e.g. BL21 (DE3)
Nature of the test: PPI-HTRF assay, K-Ras G12V / SOS1 interaction. Format: biochemical. An outline of the steps: as §1
(In general: Time-resolved FRET reads energy transfer from a long-lived donor to a nearby acceptor.)

Another test addresses T3, K-Ras G12S (Homo sapiens, UniProt P01116, G12S).
T3 construct: made in house; host or cells: E. coli, e.g. BL21 (DE3)
The test is described as follows: PPI-HTRF assay, K-Ras G12S / SOS1 interaction. Type of test: biochemical. Summed up:
as §1

A further test concerns the target T4, wildtype K-Ras (Homo sapiens, UniProt P01116).
T4 construct: made in house; host or cells: E. coli, e.g. BL21 (DE3)
Nature of the test: PPI-HTRF assay, wildtype K-Ras / SOS1 interaction. Format: biochemical. An outline of the steps: as §1

Another test deals with GP2D cells. Nature of the test: Ras cellular assay, cell proliferation GP2D. Format: cell-based. An outline of the steps: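 Growth inhibition read by CellTiter-Glo luminescence roughly 5 days after compound addition, which followed overnight plating of G12D-mutant GP2D cells (e.g., 800 per well). Compounds were tested as a serial dilution (e.g., 9 points, 3-fold), with IC50 fitted by four-parameter model.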

Another test relates to A549 cells. The test is described as follows: Ras cellular assay, cell proliferation A549. Format: cell-based. Particulars: Homo sapiens. As for the experimental part: (§2) For example, this assay can be also used to assess selective growth inhibition of a mutant Ras protein relative to a wildtype, or relative to a different mutant Ras protein.
A549 (ATCC CRL-185) and LS123 (ATCC CRL-255) cell lines comprise a G12S mutation and can be used to assess Ras cellular signaling in vitro, e.g., in response to treatment with a compound described herein. A549 culture medium is prepared with RPMI-1640 and 10% heat-inactivated FBS. LS123 culture medium is prepared with RPMI-1640 and 10% heat-inactivated FBS. A CellTiter-Glo (CTG) luminescent based assay (Promega) is used to assess growth of the cells, as a measurement of the ability of the compounds herein to inhibit Ras signaling in the cells. The cells (e.g., 800 per well) are seeded in their respective culture medium in standard tissue culture-treated 384-well format plates (Falcon #08-772-116) or ultra-low attachment surface 384-well format plates (S-Bio #MS-9384WZ). The day after plating, cells are treated with a dilution series (e.g., a 10 point, 3-fold dilution series) of the compounds herein (e.g., approximately 40 μL final volume per well). Cell viability can be monitored (e.g., approximately 6 days later) according to the manufacturer's recommended instructions, where CellTiter-Glo reagent is added (e.g., approximately 10 μL), vigorously mixed, covered, and placed on a plate shaker (e.g., approximately for 20 min) to ensure sufficient cell lysis prior to assessment of luminescent signal. The IC50 values are determined using the four parameter fit. The resulting IC50 value is a measurement of the ability of the test compound to reduce cell growth of Ras-driven cells (e.g., tumor cell lines) in vitro and/or in vivo.

The subject of a further test is SW620 cells. The test is described as follows: Ras cellular assay, cell proliferation SW620. Format: cell-based. Particulars: Homo sapiens, SW-620.
Source text: as §2

[1] abbreviates: HTRF, K-Ras G12D, read-out: PPI-HTRF-5 nM (K-Ras G12D IC50).
Setting [2] is: HTRF, K-Ras G12V, read-out: PPI-HTRF-5 nM (K-Ras G12V IC50).
Where [3] appears, read: read-out: PPI-HTRF-5 nM (K-Ras G12S IC50).
The mark [4] stands for this setting: HTRF, K-Ras wt, read-out: PPI-HTRF-5 nM (K-Ras wt IC50).

pIC50: −log10 of the molar value. Where two headings read alike, the source gives them in different places.

The pIC50 is −log10 of the IC50, conventionally taken in molar units.

T1 sequence (P01116 1-188 isoform P01116-2 G12D): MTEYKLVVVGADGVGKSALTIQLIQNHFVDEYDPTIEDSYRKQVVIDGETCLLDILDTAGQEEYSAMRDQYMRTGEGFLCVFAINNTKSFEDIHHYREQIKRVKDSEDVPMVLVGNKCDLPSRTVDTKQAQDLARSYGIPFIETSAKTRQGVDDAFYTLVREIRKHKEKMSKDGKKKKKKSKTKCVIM
T4 sequence (P01116 1-188 isoform P01116-2): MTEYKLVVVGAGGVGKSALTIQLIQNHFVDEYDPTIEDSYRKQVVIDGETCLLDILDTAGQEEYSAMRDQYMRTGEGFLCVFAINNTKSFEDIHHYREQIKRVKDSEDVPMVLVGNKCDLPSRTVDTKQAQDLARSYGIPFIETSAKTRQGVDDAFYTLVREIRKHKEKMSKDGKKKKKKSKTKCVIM
T3 sequence (P01116 1-188 isoform P01116-2 G12S): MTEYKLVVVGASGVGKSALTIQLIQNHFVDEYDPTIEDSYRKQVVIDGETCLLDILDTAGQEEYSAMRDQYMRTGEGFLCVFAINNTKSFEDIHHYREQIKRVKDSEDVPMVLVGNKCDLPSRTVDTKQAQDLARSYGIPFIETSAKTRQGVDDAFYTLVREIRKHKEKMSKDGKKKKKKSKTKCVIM
T2 sequence (P01116 1-188 isoform P01116-2 G12V): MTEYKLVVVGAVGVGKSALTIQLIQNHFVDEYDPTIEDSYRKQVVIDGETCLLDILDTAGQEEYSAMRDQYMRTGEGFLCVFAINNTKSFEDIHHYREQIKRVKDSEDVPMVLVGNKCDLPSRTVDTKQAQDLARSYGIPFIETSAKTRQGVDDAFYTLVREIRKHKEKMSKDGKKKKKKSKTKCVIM

With `N#Cc1c(N)sc2c(F)ccc(-c3c(Cl)c4c5c(nc(OC[C@@]67CCCN6C[C@H](F)C7)nc5c3F)N3CC(OC(F)F)CCC3CO4)c12` (single isomer, unassigned) [compound 148], the pIC50 on K-Ras G12D (setting [1]) was more than 5.30; at K-Ras G12V (setting [2]), more than 5.30; on K-Ras G12S (setting [3]), more than 5.30; at wildtype K-Ras (setting [4]), more than 5.30; with GP2D cells, more than 5.30; in the test on A549 cells, less than 5.30. Also, the negative-log IC50 (pIC50) with SW620 cells was more than 5.30.
Consider `N#Cc1c(N)sc2c(F)ccc(-c3c(Cl)c4c5c(nc(OC[C@@]67CCCN6C[C@H](F)C7)nc5c3F)N3Cc5ccnn5CCC3CCO4)c12` (single isomer, unassigned) [compound 153], for which the negative-log IC50 (pIC50) on K-Ras G12D (setting [1]), on K-Ras G12V (setting [2]), at K-Ras G12S (setting [3]), on wildtype K-Ras (setting [4]), with GP2D cells and with A549 cells was more than 5.30 each time. In the test on SW620 cells, the pIC50 was more than 5.30.
Consider `N#CCC1CCN2c3nc(OC[C@@]45CCCN4C[C@H](F)C5)nc4c(F)c(-c5ccc(F)c6sc(N)c(C#N)c56)c(Cl)c(c34)OCC2C1` (single isomer, unassigned) [compound 156], for which the pIC50 at K-Ras G12D (setting [1]), at K-Ras G12V (setting [2]), at K-Ras G12S (setting [3]), on wildtype K-Ras (setting [4]), in the test on A549 cells and with SW620 cells was more than 5.30 throughout.
With `N#Cc1c(N)sc2c(F)ccc(-c3c(Cl)c4c5c(nc(OC[C@@]67CCCN6C[C@H](F)C7)nc5c3F)N(CC3CC3)C3COCC3CO4)c12` (stereo partly drawn) [compound 101, 2-amino-4-(6-chloro-12-(cyclopropylmethyl)-4-fluoro-2-(((2R,7aS)-2-fluorotetrahydro-1H-pyrrolizin-7a(5H)-yl)methoxy)-8a,9,11a,12-tetrahydro-8H,11H-furo[3′,4′:6,7][1,5]oxazocino[4,3,2-de]quinazolin-5-yl)-7-fluorobenzo[b]thiophene-3-carbonitrile], the pIC50 on K-Ras G12D (setting [1]), on K-Ras G12V (setting [2]), at K-Ras G12S (setting [3]), at wildtype K-Ras (setting [4]), with GP2D cells and with A549 cells was more than 5.30 each time. The compound further showed a negative-log IC50 (pIC50) with SW620 cells of more than 5.30.
Consider `N#Cc1c(N)sc2c(F)ccc(-c3c(Cl)c4c5c(nc(OCC67CCCN6C[C@H](F)C7)nc5c3F)N3CCCC[C@@H]3CO4)c12` (stereo partly drawn) [compound 103, 2-amino-4-((5aR)-3-chloro-1-fluoro-12-(((2R)-2-fluorotetrahydro-1H-pyrrolizin-7a(5H)-yl)methoxy)-5,5a,6,7,8,9-hexahydropyrido[2′,1′:3,4][1,4]oxazepino [5,6,7-de]quinazolin-2-yl)-7-fluorobenzo[b]thiophene-3-carbonitrile], for which the pIC50 on K-Ras G12D (setting [1]), on K-Ras G12V (setting [2]), on K-Ras G12S (setting [3]), at wildtype K-Ras (setting [4]), with GP2D cells and in the test with A549 cells was more than 5.30 in each case. The compound also gave a pIC50 with SW620 cells of more than 5.30.
As for `N#CCC1CCC2COc3c(Cl)c(-c4ccc(F)c5sc(N)c(C#N)c45)c(F)c4nc(OC[C@@]56CCCN5C[C@H](F)C6)nc(c34)N12` (stereo partly drawn) [compound 107, 2-amino-4-(6-chloro-11-(cyanomethyl)-4-fluoro-2-(((2R,7aS)-2-fluorotetrahydro-1H-pyrrolizin-7a(5H)-yl)methoxy)-8a,9,10,11-tetrahydro-8H-pyrrolo[2′,1′:3,4][1,4]oxazepino[5,6,7-de]quinazolin-5-yl)-7-fluorobenzo[b]thiophene-3-carbonitrile], the pIC50 on K-Ras G12D (setting [1]), at K-Ras G12V (setting [2]), on K-Ras G12S (setting [3]), at wildtype K-Ras (setting [4]), with GP2D cells and with A549 cells was more than 5.30 each time. In the test with SW620 cells, the pIC50 was more than 5.30.
Turning to `CN1c2nc(OC[C@@]34CCCN3C[C@H](F)C4)nc3c(F)c(-c4ccc(F)c5sc(N)c(C#N)c45)c(Cl)c(c23)OC2CN(C(=O)C3N[C@H]3C3CC3)CC21` (stereo partly drawn) [compound 108, 2-amino-4-(6-chloro-9-((3S)-3-cyclopropylaziridine-2-carbonyl)-4-fluoro-2-(((2R,7aS)-2-fluorotetrahydro-1H-pyrrolizin-7a(5H)-yl)methoxy)-11-methyl-7a,8,9,10,10a,11-hexahydropyrrolo[3′,4′:2,3][1,4]oxazepino [5,6,7-de]quinazolin-5-yl)-7-fluorobenzo[b]thiophene-3-carbonitrile], the pIC50 was more than 5.30 on K-Ras G12D; more than 5.30 on K-Ras G12V; more than 5.30 against K-Ras G12S (PPI-HTRF-5 nM (K-Ras G12S IC50)); more than 5.30 against wildtype K-Ras; more than 5.30 with GP2D cells; less than 5.30 with A549 cells. In addition, the pIC50 with SW620 cells was less than 5.30.
For the compound `CN1c2nc(OC[C@@]34CCCN3C[C@H](F)C4)nc3c(F)c(-c4ccc(F)c5sc(N)c(C#N)c45)c(Cl)c(c23)OCC2CCCC21` (stereo partly drawn) [compound 110, 2-amino-4-(6-chloro-4-fluoro-2-(((2R,7aS)-2-fluorotetrahydro-1H-pyrrolizin-7a(5H)-yl)methoxy)-12-methyl-8a,9,10,11,11a,12-hexahydro-8H-cyclopenta[6,7][1,5]oxazocino[4,3,2-de]quinazolin-5-yl)-7-fluorobenzo[b]thiophene-3-carbonitrile], the negative logarithm of the IC50 (pIC50) on K-Ras G12V (setting [2]) is more than 5.30; on K-Ras G12S (setting [3]), more than 5.30; at wildtype K-Ras (setting [4]), more than 5.30; with GP2D cells it was less than 5.30; in the test with A549 cells, less than 5.30; in the test with SW620 cells it was more than 5.30.
In the case of `N#CCC1CN2c3nc(OC[C@@]45CCCN4C[C@H](F)C5)nc4c(F)c(-c5ccc(F)c6sc(N)c(C#N)c56)c(Cl)c(c34)OCCC12` (stereo partly drawn) [compound 114, 2-amino-4-(9-chloro-1-(cyanomethyl)-7-fluoro-5-(((2R,7aS)-2-fluorotetrahydro-1H-pyrrolizin-7a(5H)-yl)methoxy)-1,11,12,12a-tetrahydro-2H-azeto[1′,2′:5,6][1,5]oxazocino[4,3,2-de]quinazolin-8-yl)-7-fluorobenzo[b]thiophene-3-carbonitrile], the negative-log IC50 (pIC50) on K-Ras G12D (setting [1]), on K-Ras G12V (setting [2]), on K-Ras G12S (setting [3]), on wildtype K-Ras (setting [4]), in the test with GP2D cells and with A549 cells was more than 5.30 in each case. Further, the negative logarithm of the IC50 (pIC50) in the test on SW620 cells is more than 5.30.
Consider `N#Cc1c(N)sc2c(F)ccc(-c3c(Cl)c4c5c(nc(OC[C@@]67CCCN6C[C@H](F)C7)nc5c3F)N3CCC[C@@H]3CCO4)c12` [compound 143, 2-amino-4-((13aR)-10-chloro-8-fluoro-6-(((2R,7aS)-2-fluorotetrahydro-1H-pyrrolizin-7a(5H)-yl)methoxy)-1,2,3,12,13,13a-hexahydropyrrolo[1′,2′:5,6][1,5]oxazocino [4,3,2-de]quinazolin-9-yl)-7-fluorobenzo[b]thiophene-3-carbonitrile], for which the pIC50 on K-Ras G12D (setting [1]), on K-Ras G12V (setting [2]), on K-Ras G12S (setting [3]), on wildtype K-Ras (setting [4]), with A549 cells and in the test on SW620 cells was more than 5.30 each time.
